In a compilation of properties of binary mixtures (doi:10.1021/je300093r):

Test: xn = mol fraction of the nth substance listed
Conditions: 101 kPa

CCCC[n+]1ccccc1.O=S(=O)([N-]S(=O)(=O)C(F)(F)F)C(F)(F)F + CCCC[n+]1ccccc1.F[B-](F)(F)F
viscosity [mPa·s]
Conditions | 303.15 K | 313.15 K | 323.15 K | 333.15 K | 343.15 K | 353.15 K
x1 = 0.0442 | 115.3 | 70.5 | 46.1 | 31.9 | 22.9 | 17.1
x1 = 0.1119 | 105 | 66.2 | 43.8 | 30.4 | – | –
x1 = 0.2162 | – | 57.6 | 38.6 | 27.3 | – | 15.2
x1 = 0.3217 | 82.6 | 53.1 | 35.7 | 25.5 | 18.7 | 14.4
x1 = 0.4327 | 75.7 | – | 33.3 | 23.8 | 17.6 | –
x1 = 0.5429 | 70.2 | – | 31.8 | 23.1 | 17.3 | –
x1 = 0.6523 | 63.1 | – | 29.8 | – | 16.4 | 12.8
x1 = 0.7643 | – | 39.1 | 27.7 | 20.5 | 15.5 | 12.1
x1 = 0.8822 | 54.1 | – | 25.8 | 19.2 | – | 11.5
x1 = 0.9467 | 52 | 35 | 25 | 18.5 | 14.1 | 11.1
x1 = 1 | 49.4 | 33.8 | – | 17.9 | 13.7 | –

CCCC[n+]1ccccc1.F[B-](F)(F)F + CCCC[n+]1ccccc1.O=S(=O)([N-]S(=O)(=O)C(F)(F)F)C(F)(F)F
x2 = 0
Conditions | viscosity [mPa·s]
313.15 K | 74.8
323.15 K | 48.1
333.15 K | 33
343.15 K | 23.8
